In ChEMBL document CHEMBL3217654, “Beta-adrenergic receptor signaling by the isomers of isoproterenol and like drugs in retinal endothelial cells and Muller cells” (Medchemcomm, 2011):
The source made the active and inactive calls. No cut-off for these calls is given here.

Key:
[1] = organism: Rattus norvegicus; test: Reduction of high glucose-induced apoptosis in rat rMC-1 cells assessed as decrease in caspase 3 level at 0.05 to 10 uM after 1 to 24 hrs by ELISA; type: functional, cell-based
[2] = Antiinflammatory activity in REC (unknown origin) assessed as effect on high glucose-induced TNFalpha level at 0.05 to 10 uM after 30 to 60 mins by ELISA; type: functional
[3] = Reduction of high glucose-induced apoptosis in REC (unknown origin) assessed as decrease in caspase 3 level at 10 uM after 15 to 45 mins by ELISA; type: functional
[4] = Reduction of high glucose-induced apoptosis in REC (unknown origin) assessed as decrease in caspase 3 level at 0.05 to 10 uM after 30 to 60 mins by ELISA; type: functional
[5] = organism: Rattus norvegicus; test: Antiinflammatory activity in rat rMC-1 cells assessed as decrease of high glucose-induced TNFalpha level at 0.05 to 10 uM after 1 to 24 hrs by ELISA; type: functional, cell-based
[6] = Antiinflammatory activity in REC (unknown origin) assessed as decrease of high glucose-induced TNFalpha level at 0.05 to 10 uM after 30 to 60 mins by ELISA; type: functional
[7] = target: Beta-1 adrenergic receptor (Homo sapiens) (UniProt P08588); test: Displacement of […]-iodocyanopindolol from beta1-adrenergic receptor in REC (unknown origin) at 0.01 to 10000 nM
[8] = target: Beta-1 adrenergic receptor (Rattus norvegicus) (UniProt P18090); test: Displacement of […]-iodocyanopindolol from beta1-adrenergic receptor in rat rMC-1 cells at 0.01 to 10000 nM; type: cell-based
[9] = Antiinflammatory activity in REC (unknown origin) assessed as increase of high glucose-induced TNFalpha level at 0.05 to 10 uM after 30 to 60 mins by ELISA; type: functional

Chain of Beta-1 adrenergic receptor (Rattus norvegicus) (P18090 whole entry, looked up): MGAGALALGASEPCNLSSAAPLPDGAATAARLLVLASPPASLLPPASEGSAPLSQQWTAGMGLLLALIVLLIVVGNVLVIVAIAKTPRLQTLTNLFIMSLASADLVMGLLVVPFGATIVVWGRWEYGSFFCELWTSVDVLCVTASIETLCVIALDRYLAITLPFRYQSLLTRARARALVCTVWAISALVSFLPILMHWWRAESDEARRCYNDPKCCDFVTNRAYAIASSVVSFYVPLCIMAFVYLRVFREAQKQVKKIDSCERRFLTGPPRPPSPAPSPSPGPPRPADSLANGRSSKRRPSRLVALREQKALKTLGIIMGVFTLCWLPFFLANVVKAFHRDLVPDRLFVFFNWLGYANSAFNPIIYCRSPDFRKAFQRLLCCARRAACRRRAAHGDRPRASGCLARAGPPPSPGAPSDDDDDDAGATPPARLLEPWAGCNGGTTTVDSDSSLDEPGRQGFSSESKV
Chain of Beta-1 adrenergic receptor (Homo sapiens) (P08588 whole entry, looked up): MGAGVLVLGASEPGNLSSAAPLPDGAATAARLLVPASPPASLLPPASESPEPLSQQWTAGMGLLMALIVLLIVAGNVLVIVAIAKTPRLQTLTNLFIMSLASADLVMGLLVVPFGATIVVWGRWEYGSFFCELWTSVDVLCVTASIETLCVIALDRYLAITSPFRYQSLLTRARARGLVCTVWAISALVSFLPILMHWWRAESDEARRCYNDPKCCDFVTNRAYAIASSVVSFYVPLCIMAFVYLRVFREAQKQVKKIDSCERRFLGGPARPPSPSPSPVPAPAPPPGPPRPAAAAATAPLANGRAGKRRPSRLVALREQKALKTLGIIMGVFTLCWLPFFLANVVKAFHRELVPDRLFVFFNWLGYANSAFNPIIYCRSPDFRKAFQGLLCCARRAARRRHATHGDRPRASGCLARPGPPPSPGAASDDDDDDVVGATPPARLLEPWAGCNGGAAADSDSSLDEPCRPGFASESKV

inhibition [7]	inhibition [8]	Compound	Activity [1]	Activity [2]	Activity [3]	Activity [4]	Activity [5]	Activity [6]	Activity [9]
		CC(C)NC[C@H](O)c1ccc(O)c(O)c1 (stereo in doubt; R-1)	inactive	inactive	Active	Active	Active		
inactive	inactive	O=C(NCCN(C[C@H](O)c1ccc(O)c(O)c1)C(=O)N1CCOCC1)N1CCOCC1	inactive		Active	Active	inactive	Active	
		Oc1ccc([C@@H](O)CNCCCN2CCOCC2)cc1O	inactive	inactive	Active	Active	inactive		
		CC(C)NC[C@H](O)c1ccc(O)c(O)c1 (stereo in doubt; S-1)	inactive	inactive		inactive	Active		
		O=C(NC[C@H](O)c1ccc(O)c(O)c1)N1CCOCC1	inactive			inactive	inactive		inactive
